PMC4291531 (The Journal of Experimental Medicine, 2015)

T1: human MD-2 (Homo sapiens, UniProt Q9Y6Y9)
T1 sequence (Q9Y6Y9 19-160): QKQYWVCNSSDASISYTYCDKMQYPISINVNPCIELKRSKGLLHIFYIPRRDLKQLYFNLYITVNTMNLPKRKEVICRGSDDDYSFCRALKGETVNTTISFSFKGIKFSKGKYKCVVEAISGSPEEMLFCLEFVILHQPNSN

B1: Hg-HMGB1: HMGB1 with mercury thiolate on cysteine at position 106 (protein, UniProt P09429 1-215, looked up)
High mobility group protein B1: MGKGDPKKPRGKMSSYAFFVQTCREEHKKKHPDASVNFSEFSKKCSERWKTMSAKEKGKFEDMAKADKARYEREMKTYIPPKGETKKKFKDPNAPKRPPSAFFLFCSEYRPKIKGEHPGLSIGDVAKKLGEMWNNTAADDKQPYEKKAAKLKEKYEKDIAAYRAKGKPDAAKKGVVKAEKSKKKKEEEEDEEDEEDEEEEEDEEDEDEEEDDDDE
modifications: mercury thiolate on C106

What was measured:
WT or MD-2 KO mice = test: APAP hepatotoxicity in WT or MD-2 KO mice; format: in vivo, mouse
RAW 264.7 cells = test: TNF release from RAW 264.7 cells stimulated with HMGB1 isoforms; details: 1 µg/ml, 16 h, n = 3–5 experiments
human MD-2 = biological target: T1, human MD-2; test: SPR; format: binding; details: MD-2 coated on chip; for reduction in MD-2 binding as compared with disulfide HMGB1: SPR, HMGB1 isoforms
[1] = biological target: human MD-2 (myeloid differentiation factor 2) (human) (UniProt Q9Y6Y9); test: SPR
immune cells = details: ref Tang et al., 2012, Venereau et al.; cited from earlier work
[2] = tested on: thioglycollate-elicited peritoneal macrophages (WT and MD-2 KO); format: cell-based; details: MD-2 KO vs WT macrophages; mouse cytokine antibody array

Molecule | TNF release induced by HMGB1 isoform (RAW 264.7 cells) | reduction in MD-2 binding as compared with disulfide HMGB1 (human MD-2) | extracellular chemokine/cytokine activity (in words) (immune cells) | also measured
CC(=O)Nc1ccc(O)cc1 [APAP, acetaminophen] |  |  |  | serum HMGB1 levels, WT and MD-2 KO mice (WT or MD-2 KO mice; 24 h after APAP): comparably elevated in WT and MD-2 KO mice; APAP acute hepatic injury (GLDH, AST, ALT, necrosis), MD-2 KO vs WT (WT or MD-2 KO mice; APAP 400 mg/kg i.p., 24 h, n = 5–13 mice per group): significant reduction in acute hepatic injury; cytokine release and APAP-induced lethality, MD-2 KO vs WT (WT or MD-2 KO mice; APAP i.p. 400 mg/kg (serum, 24 h), 350 mg/kg (survival, n = 15)): significant reduction in cytokine (TNF and IL-6) release and APAP-induced animal lethality
H2S-modified HMGB1: HMGB1 S-sulfhydrated by incubation with 5 mM NaSH for 3 h at room temperature | failed to induce TNF release | > 1,000 fold |  | 
disulfide HMGB1 (from UniProt P63159 1-215) (natural protein) |  |  |  | Kd [1]: 12 nM
disulfide HMGB1: recombinant cytokine-stimulating HMGB1; disulfide bond between cysteines 23 and 45 and reduced thiol on cysteine 106 | induced TNF secretion |  | activates immune cells to produce cytokines/chemokines via the TLR4 receptor | release of IL-12/p40 stimulated with HMGB1 [2]: via an MD-2–independent mechanism; MD-2 binding (in words) (human MD-2; SPR Biacore): binds to MD-2 with high affinity
fully reduced HMGB1: HMGB1 with all cysteine residues reduced (DTT-reduced) | failed to induce TNF release | > 1,000 fold | binds to CXCL12 and stimulates immune cell infiltration via the CXCR4 receptor | 
sulfonyl HMGB1 (from UniProt P63159 1-215) (natural protein) |  |  |  | fold reduction in MD-2 binding against disulfide HMGB1 [1]: > 1000 fold
sulfonyl HMGB1: HMGB1 with all cysteines terminally oxidized | failed to induce TNF release | > 1,000 fold | devoid of chemotactic and cytokine activities | 
B1 | Noncytokine-inducing |  |  | 
